Measurements reported in ChEMBL document CHEMBL1201862, “PubChem BioAssay data set” (2004).
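These data come from cells grown in 96-well plates and exposed to compound for 48 hours at five concentrations. GI50 is the concentration that inhibits growth by half.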 Activity calls are given as the source filed them. No stated cut-off is given here; in the data, active = GI50 up to about 1.1 µM and inactive = higher.

Legend:
Experiment in all cases: NCI-60 cell line screen, 48 h
SF-295 = system: SF-295
SR = system: SR
OVCAR-3 = system: OVCAR-3
SF-268 = system: SF-268
UACC-62 = system: UACC-62
A549 = system: A549
LOX IMVI = system: LOX IMVI
TK-10 = system: TK-10
NCI-H522 = system: NCI-H522
UACC-257 = system: UACC-257
SF-539 = system: SF-539
NCI-H226 = system: NCI-H226
K562 = system: K562
OVCAR-8 = system: OVCAR-8
RXF 393 = system: RXF 393
SNB-75 = system: SNB-75
HCC 2998 = system: HCC 2998
SK-OV-3 = system: SK-OV-3
HL-60 = system: HL-60
UO-31 = system: UO-31

Measured: GI50

Cn1c2c3ccc(Cl)cc3nc-2c(Cl)c2ccccc21
inactive: SF-295 15.2 µM | SR 6.15 µM | OVCAR-3 14 µM | SF-268 14.2 µM | UACC-62 20.4 µM | A549 27.3 µM | LOX IMVI 13.3 µM | TK-10 16.6 µM | NCI-H522 17.9 µM | UACC-257 17.5 µM | SF-539 19.9 µM | NCI-H226 23 µM | K562 6.01 µM | OVCAR-8 20.2 µM | RXF 393 16.6 µM | SNB-75 17.1 µM | HCC 2998 5.38 µM | SK-OV-3 49.4 µM | HL-60 24.2 µM | UO-31 16.3 µM

O=c1n(C2CCCCC2)c(=C(Cl)Cl)c(=C(Cl)Cl)n1C1CCCCC1
inactive: SF-295 > 100 µM | SR > 100 µM | OVCAR-3 > 100 µM | SF-268 > 100 µM | UACC-62 > 100 µM | A549 > 100 µM | LOX IMVI > 100 µM | TK-10 > 100 µM | NCI-H522 > 100 µM | UACC-257 54.5 µM | SF-539 > 100 µM | NCI-H226 > 100 µM | K562 > 100 µM | OVCAR-8 > 100 µM | RXF 393 > 100 µM | SNB-75 > 100 µM | HCC 2998 > 100 µM | SK-OV-3 > 100 µM | HL-60 39.6 µM | UO-31 > 100 µM

COc1cc2c3c(cc(Cl)nc3c1OC)C(=O)C(=O)N2
inactive: SF-295 18.6 µM | SR 3.26 µM | OVCAR-3 16.6 µM | SF-268 17.4 µM | UACC-62 6.28 µM | A549 19.7 µM | LOX IMVI 9.44 µM | TK-10 18.7 µM | NCI-H522 4.22 µM | UACC-257 8.39 µM | SF-539 20.2 µM | NCI-H226 21.1 µM | K562 2.91 µM | OVCAR-8 18.2 µM | RXF 393 13.6 µM | SNB-75 15.7 µM | HCC 2998 18.2 µM | SK-OV-3 18 µM | HL-60 1.36 µM | UO-31 13.6 µM

O=C1CS(=O)(=O)C(c2cccc(Oc3ccccc3)c2)N1c1ccccc1 (stereo not given)
inactive: SF-295 30.5 µM | SR 19.9 µM | OVCAR-3 20.7 µM | SF-268 23.7 µM | UACC-62 12.4 µM | A549 35.1 µM | LOX IMVI 16.5 µM | TK-10 26.6 µM | NCI-H522 18.9 µM | UACC-257 18.6 µM | SF-539 21.3 µM | NCI-H226 21.4 µM | K562 14.4 µM | OVCAR-8 27 µM | RXF 393 19.3 µM | SNB-75 34.1 µM | HCC 2998 16.9 µM | SK-OV-3 35.2 µM | HL-60 21.1 µM | UO-31 29.9 µM

O=C1/C(=C\c2ccccc2)c2ccccc2N1Cc1ccccc1
inactive: SF-295 11.4 µM | SR 2.04 µM | OVCAR-3 3.99 µM | SF-268 9.25 µM | UACC-62 7.1 µM | A549 11.6 µM | LOX IMVI 7.45 µM | TK-10 12.9 µM | NCI-H522 10.1 µM | UACC-257 10.9 µM | SF-539 > 10 µM | NCI-H226 10.8 µM | K562 2.88 µM | OVCAR-8 11.6 µM | RXF 393 10.4 µM | SNB-75 9.66 µM | HCC 2998 11.8 µM | SK-OV-3 11.1 µM | HL-60 4.08 µM | UO-31 10 µM
